From patent US9393221B2, “Methods and compounds for reducing intracellular lipid storage” (THE GENERAL HOSPITAL CORPORATION, priority 2011, dated 2016)
Structures can show the parent of a compound that is named as a salt.

tested on: ATGL-KO iPSCs; experiment: High throughput iPSC chemical screening, Oil Red O (ORO) lipid accumulation; assay type: cell-based, mouse; conditions: glycolytic switch compounds; for Z-score: test concentration or dose not given here

Row | Structure (SMILES) | Rank in normalized ORO score from screen
1 | CC1CC(OC(=O)c2ccccc2O)CC(C)(C)C1 (centres unmarked) [Homosalate] | 320

same assay, conditions: normalized ORO level vs DMSO-treated cells; compound present during 7 days differentiation, 96-well; negative = decrease in lipid accumulation

Row | Structure (SMILES) | Z-score
2 | CC1(C)O[C@@H]2C[C@H]3[C@@H]4CCC5=CC(=O)CC[C@]5(C)[C@@]4(F)[C@@H](O)C[C@]3(C)[C@]2(C(=O)CCl)O1 [Halcinonide] | −0.7085
3 | CCCCN(CCCC)CCC(O)c1cc2c(Cl)cc(Cl)cc2c2cc(C(F)(F)F)ccc12 (centres unmarked) [Halofantrine hydrochloride] | 1.459
4 | O=C(CCCN1CCC(O)(c2ccc(Cl)cc2)CC1)c1ccc(F)cc1 [Haloperidol] | −1.1776
5 | COc1ccc2c3c([nH]c2c1)C(C)=NCC3.Cl.O.O [Harmaline hydrochloride dihydrate] | −0.5714
6 | CC1=NCCc2c1[nH]c1cc(O)ccc21.Cl.O.O [Harmalol hydrochloride dihydrate] | 0.3888
7 | COc1ccc2c(c1)[nH]c1c(C)nccc12.Cl [Harmine hydrochloride] | 0.3085
8 | Cc1[nH]ccc2c1[nH]c1cc(=O)ccc12 [Harmol hydrochloride monohydrate] | −0.0757
9 | C[C@]1(OC(=O)/C=C/c2ccccc2)C[C@@H](O)[C@]2(O)C=CO[C@@H](O[C@@H]3O[C@H](CO)[C@@H](O)[C@H](O)[C@H]3O)[C@@H]21 [Harpagoside] | −1.174
10 | C[C@@H]1CC[C@@]2(OC1)O[C@H]1C[C@H]3[C@@H]4CC[C@@]5(C)C[C@@H](O)CC[C@]5(C)[C@H]4CC(=O)[C@]3(C)[C@H]1[C@@H]2C [Hecogenin] | 0.9208
11 | CO[C@H](C)[C@](O)(C(=O)OCC1=CCN2CC[C@H](O)[C@@H]12)C(C)C [Heliotrine] | −1.2812
12 | C[N+]1(C)CCOC(O)(c2ccc(-c3ccc(C4(O)C[N+](C)(C)CCO4)cc3)cc2)C1.[Br-].[Br-] (centres unmarked) [Hemicholinium bromide] | 2.91
13 | CC(N)CCCC(C)(C)O (centres unmarked) [Heptaminol hydrochloride] | −0.2987
14 | COc1ccc([C@@H]2CC(=O)c3c(O)cc(O)cc3O2)cc1O [Hesperetin] | −1.3358
15 | COc1ccc([C@@H]2CC(=O)c3c(O)cc(O[C@@H]4O[C@H](CO[C@@H]5O[C@@H](C)[C@H](O)[C@@H](O)[C@H]5O)[C@@H](O)[C@H](O)[C@H]4O)cc3O2)cc1O [Hesperidin] | 2.254
16 | C[N+](C)(C)CCCCCC[N+](C)(C)C.O.O.[Br-].[Br-] [Hexamethonium dibromide dihydrate] | −0.5997
17 | CC[C@H](c1ccc(O)cc1)[C@@H](CC)c1ccc(O)cc1 [Hexestrol] | −1.0339
18 | CCCCC(CC)CN1CN(CC(CC)CCCC)CC(C)(N)C1 (centres unmarked) [Hexetidine] | 1.396
19 | CC(CNC1CCCCC1)OC(=O)c1ccccc1 (centres unmarked) [Hexylcaine hydrochloride] | 0.687
20 | CN1CCC2=C[C@H](O)[C@H]3OC(=O)c4cc5c(cc4[C@H]3[C@@H]21)OCO5 [Hippeastrine hydrobromide] | −1.1441
21 | CN1CCCN(C(c2ccccc2)c2ccc(Cl)cc2)CC1 (centres unmarked) [Homochlorcyclizine dihydrochloride] | −0.8178
22 | CC1CC(OC(=O)c2ccccc2O)CC(C)(C)C1 (centres unmarked) [Homosalate] | −0.7744
23 | CCN(CC)CCNc1ccc(CO)c2sc3ccccc3c(=O)c12 [Hycanthone] | 20.1467
24 | NNc1nncc2ccccc12 [Hydralazine hydrochloride] | 9.342
25 | COc1ccc2c(c1OC)C(=O)O[C@@H]2[C@H]1c2cc3c(cc2CCN1C)OCO3 [Hydrastine hydrochloride] | −0.3277
26 | CN1CCc2cc3c(cc2C1O)OCO3 (centres unmarked) [Hydrastinine hydrochloride] | −0.5549

Row | Structure (SMILES) | Z-score
27 | NS(=O)(=O)c1cc2c(cc1Cl)NCNS2(=O)=O [Hydrochlorothiazide] | 1.18
28 | C[C@]12CCC(=O)C=C1CC[C@@H]1[C@@H]2[C@@H](O)C[C@@]2(C)[C@H]1CC[C@]2(O)C(=O)CO [Hydrocortisone base] | −0.2176
29 | COc1c2c(cc3c1OCO3)CCN(C)C2 [Hydrocotarnine hydrobromide] | −0.8038
30 | NS(=O)(=O)c1cc2c(cc1C(F)(F)F)NCNS2(=O)=O [Hydroflumethiazide] | 0.1855
31 | CC[C@H]1CN2CC[C@H]1C[C@H]2[C@H](O)c1ccnc2ccc(OC)cc12 [Hydroquinine hydrobromide hydrate] | 1.2243
32 | OCCOCCN1CCN(C(c2ccccc2)c2ccc(Cl)cc2)CC1 (centres unmarked) [Hydroxyzine dihydrochloride] | −0.9071
33 | Cc1cc(=O)oc2cc(O)ccc12 [Hymecromone] | −0.7731
34 | CN1[C@@H]2CC[C@H]1C[C@@H](OC(=O)[C@H](CO)c1ccccc1)C2 [Hyoscyamine (L)] | 1.204
35 | c1ccc2c(c1)OCC(C1=NCCN1)O2 (centres unmarked) [Idazoxan hydrochloride] | −1.447
36 | O=c1[nH]c(=O)n([C@H]2C[C@H](O)[C@@H](CO)O2)cc1I [Idoxuridine] | −1.0734
37 | O=P1(NCCCl)OCCCN1CCCl (centres unmarked) [Ifosfamide] | −1.424
38 | O=C(NCNC(=O)NC1C(=O)NC(=O)N1CO)NC1C(=O)NC(=O)N1CO (centres unmarked) [Imidurea] | 0.2567
39 | C[C@@H](O)[C@H]1C(=O)N2C(C(=O)O)=C(SCCN=CN)C[C@H]12 [Imipenem] | −0.7436
40 | CN(C)CCCN1c2ccccc2CCc2ccccc21 [Imipramine hydrochloride] | 1.459
41 | CC1Cc2ccccc2N1NC(=O)c1ccc(Cl)c(S(N)(=O)=O)c1 (centres unmarked) [Indapamide] | −0.6747
42 | COc1ccc2c(c1)c(CC(=O)O)c(C)n2C(=O)c1ccc(Cl)cc1 [Indomethacin] | −0.7862
43 | CC(C(=O)O)c1ccc(N2Cc3ccccc3C2=O)cc1 (centres unmarked) [Indoprofen] | −1.4204
44 | CC(=O)N(CC(C)C(=O)O)c1c(I)cc(I)c(N)c1I (centres unmarked) [Iocetamic acid] | −1.5742
45 | O=C(CCCCC(=O)Nc1c(I)cc(I)c(C(=O)O)c1I)Nc1c(I)cc(I)c(C(=O)O)c1I [Iodipamide] | −0.3225
46 | CC(=O)N(CC(O)CO)c1c(I)c(C(=O)NCC(O)CO)c(I)c(C(=O)NCC(O)CO)c1I (centres unmarked) [Iohexol] | −1.1016
47 | C[C@H](O)C(=O)Nc1c(I)c(C(=O)NC(CO)CO)c(I)c(C(=O)NC(CO)CO)c1I [Iopamidol] | 1.108
48 | CCC(Cc1c(I)cc(I)c(N)c1I)C(=O)O (centres unmarked) [Iopanoic acid] | −0.7767
49 | COCC(=O)Nc1c(I)c(C(=O)NCC(O)CO)c(I)c(C(=O)N(C)CC(O)CO)c1I (centres unmarked) [Iopromide] | 0.2481
50 | O=C(NCC(O)CO)c1c(I)c(C(=O)NCC(O)CO)c(I)c(N(CCO)C(=O)CO)c1I (centres unmarked) [Ioversol] | 0.08392
51 | CNC(=O)c1c(I)c(C(=O)NCC(=O)Nc2c(I)c(C(=O)O)c(I)c(C(=O)NCCO)c2I)c(I)c(N(C)C(C)=O)c1I [Ioxaglic acid] | −0.54

Row | Structure (SMILES) | Z-score
52 | CC(C)[N+]1(C)[C@@H]2CC[C@H]1CC(OC(=O)C(CO)c1ccccc1)C2.[Br-] (some centres unmarked) [Ipratropium bromide] | −0.1032
53 | Cc1cc(C(=O)NNCc2ccccc2)no1 [Isocarboxazid] | 1.91
54 | Clc1ccc(C(Cn2ccnc2)OCc2c(Cl)cccc2Cl)c(Cl)c1 (centres unmarked) [Isoconazole] | −1.2562
55 | COc1ccc2c(c1O)-c1c(OC)c(OC)cc3c1[C@H](C2)N(C)CC3 [Isocorydine (+)] | −0.7668
56 | CC(=O)OCC(=O)[C@@]1(O)CC[C@H]2[C@@H]3CCC4=CC(=O)C=C[C@]4(C)[C@@]3(F)[C@@H](O)C[C@@]21C [Isoflupredone acetate] | 1.55
57 | CNC(C)CCC=C(C)C.CNC(C)CCC=C(C)C.O=C(O)[C@@H](O)[C@H](O)[C@H](O)[C@@H](O)C(=O)O [Isometheptene mucate] | 0.6197
58 | NNC(=O)c1ccncc1 [Isoniazid] | 0.9473
59 | CC(C)[N+](C)(CCC(C(N)=O)(c1ccccc1)c1ccccc1)C(C)C [Isopropamide iodide] | −0.2928
60 | Cc1c(NC(C)C)c(=O)n(-c2ccccc2)n1C.Cl [Isopyrin hydrochloride] | 0.0325
61 | CC1=C(/C=C/C(C)=C/C=C/C(C)=C\C(=O)O)C(C)(C)CCC1 [Isotretinoin] | −1.1597
62 | Cc1cc(NC(=O)C2=C(O)c3ccccc3S(=O)(=O)N2C)no1 [Isoxicam] | −0.7646
63 | CC(COc1ccccc1)NC(C)C(O)c1ccc(O)cc1 (centres unmarked) [Isoxsuprine hydrochloride] | 0.3014
64 | COC(=O)C1=C(C)NC(C)=C(C(=O)OC(C)C)C1c1cccc2nonc12 (centres unmarked) [Isradipine] | 0.2737
65 | CC[C@H](C)[C@H]1O[C@]2(CC[C@@H]1C)C[C@@H]1C[C@@H](C/C=C(\C)[C@@H](O[C@H]3C[C@H](OC)[C@@H](O[C@H]4C[C@H](OC)[C@@H](O)[C@H](C)O4)[C@H](C)O3)[C@@H](C)/C=C/C=C3\CO[C@@H]4[C@H](O)C(C)=C[C@@H](C(=O)O1)[C@]34O)O2 [Ivermectin] | 0.9419
66 | CO[C@@H]1[C@@H](O[C@@H]2O[C@H](C)[C@@H](O[C@H]3C[C@@](C)(O)[C@@H](OC(=O)CC(C)C)[C@H](C)O3)[C@H](N(C)C)[C@H]2O)[C@@H](CC=O)C[C@@H](C)[C@@H](O)/C=C/C=C/C[C@@H](C)OC(=O)C[C@H]1OC(C)=O [Josamycin] | −0.5964
67 | O=c1c(O)c(-c2ccc(O)cc2)oc2cc(O)cc(O)c12 [Kaempferol] | −0.0374
68 | NC[C@H]1O[C@H](O[C@H]2[C@H](O)[C@@H](O[C@H]3O[C@H](CO)[C@@H](O)[C@H](N)[C@H]3O)[C@H](N)C[C@@H]2N)[C@H](O)[C@@H](O)[C@@H]1O.O=S(=O)(O)O [Kanamycin A sulfate] | 2.436
69 | CCN1C[C@]2(C)CC[C@H](O)[C@]34C1[C@@H](C[C@H]23)[C@@]1(O)C[C@H](OC)[C@H]2C[C@@H]4[C@@H]1[C@H]2O [Karakoline] | −1.4178
70 | COC1=CC(=O)O[C@@H](/C=C/c2ccccc2)C1 [Kawain] | −0.5048
71 | CC(=O)N1CCN(c2ccc(OCC3COC(Cn4ccnc4)(c4ccc(Cl)cc4Cl)O3)cc2)CC1 (centres unmarked) [Ketoconazole] | 1.224
72 | CC(C(=O)O)c1cccc(C(=O)c2ccccc2)c1 (centres unmarked) [Ketoprofen] | −0.219
73 | O=C(c1ccccc1)c1ccc2n1CCC2C(=O)O (centres unmarked) [Ketorolac tromethamine] | −0.8373
74 | CN1CCC(=C2c3ccccc3CC(=O)c3sccc32)CC1 [Ketotifen fumarate] | 0.5681
